The source of these data is PMC6300978 (Chemico-biological interactions, 2015).

Molecules are shown by their SMILES. A value given as a limit tells only on which side of the number the result lay.

A short description of data set [1]: GA glucuronidation kinetics in human liver microsomes. The note with it: HLM; for microsomal CLint / Km at 60 min: both, human; for microsomal CLint: human liver microsomes; for Km at 60 min: liver microsomes, pH 7.4, Km (KS), Michaelis–Menten. Format: in vitro ADME. On the technique in general: Microsomes from liver hold many membrane-bound enzymes, among them those of drug oxidation.

For a further data set, the target named is T1, recombinant human UGT2B7 (Homo sapiens, UniProt P16662).
T1 sequence (P16662 24-529): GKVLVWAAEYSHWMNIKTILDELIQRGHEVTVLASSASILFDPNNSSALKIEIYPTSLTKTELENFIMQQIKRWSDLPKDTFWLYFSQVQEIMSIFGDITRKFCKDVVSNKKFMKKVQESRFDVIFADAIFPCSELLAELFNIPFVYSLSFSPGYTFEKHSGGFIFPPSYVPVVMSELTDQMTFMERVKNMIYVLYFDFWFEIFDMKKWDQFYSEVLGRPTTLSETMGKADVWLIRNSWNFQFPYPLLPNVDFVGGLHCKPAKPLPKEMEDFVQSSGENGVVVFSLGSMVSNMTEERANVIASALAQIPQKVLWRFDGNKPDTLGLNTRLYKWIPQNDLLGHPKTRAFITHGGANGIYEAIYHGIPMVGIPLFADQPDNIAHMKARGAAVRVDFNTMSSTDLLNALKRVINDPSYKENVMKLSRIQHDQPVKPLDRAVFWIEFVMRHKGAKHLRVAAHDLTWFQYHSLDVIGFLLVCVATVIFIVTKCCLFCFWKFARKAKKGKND
Description: GA glucuronidation by recombinant UGT2B7. Format: in vitro ADME. Particulars: UGT2B7, whole range of substrate concentrations.

A further data set has as its target T2, UGT1A8 (Homo sapiens, UniProt Q9HAW9).
T2 sequence (Q9HAW9 26-530): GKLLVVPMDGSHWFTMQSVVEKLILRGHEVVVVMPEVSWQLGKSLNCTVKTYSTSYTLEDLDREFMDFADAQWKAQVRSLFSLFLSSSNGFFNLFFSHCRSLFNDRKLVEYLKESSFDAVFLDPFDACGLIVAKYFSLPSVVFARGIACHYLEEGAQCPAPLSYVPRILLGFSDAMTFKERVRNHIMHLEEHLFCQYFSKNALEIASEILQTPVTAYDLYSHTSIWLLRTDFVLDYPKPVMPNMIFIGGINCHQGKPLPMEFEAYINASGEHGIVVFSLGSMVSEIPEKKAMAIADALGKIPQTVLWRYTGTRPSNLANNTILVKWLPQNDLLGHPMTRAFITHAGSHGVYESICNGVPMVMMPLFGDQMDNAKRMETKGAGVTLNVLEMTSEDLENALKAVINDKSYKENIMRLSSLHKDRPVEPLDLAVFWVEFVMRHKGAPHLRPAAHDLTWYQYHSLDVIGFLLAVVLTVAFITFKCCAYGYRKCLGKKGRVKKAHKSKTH
Description: GA glucuronidation by recombinant UGT1A8. The data set is classed as in vitro ADME.

The nature of data set [2]: GA glucuronidation kinetics in human intestinal microsomes. The data set is classed as in vitro ADME. The note with it: for microsomal CLint: human intestinal microsomes.
For data set [3] the following is noted: rats; cited from earlier work.
Data set [4] in a line: GA glucuronidation kinetics in cynomolgus monkey liver microsomes. The data set is classed as in vitro ADME, cynomolgus monkeys. The note with it: CyLM; for Km at 60 min: cynomolgus monkey, liver microsomes, pH 7.4, Km (KS), Michaelis–Menten.
The target in a further data set is T3, UGT1A3 (Homo sapiens, UniProt P35503).
T3 sequence (P35503 29-534): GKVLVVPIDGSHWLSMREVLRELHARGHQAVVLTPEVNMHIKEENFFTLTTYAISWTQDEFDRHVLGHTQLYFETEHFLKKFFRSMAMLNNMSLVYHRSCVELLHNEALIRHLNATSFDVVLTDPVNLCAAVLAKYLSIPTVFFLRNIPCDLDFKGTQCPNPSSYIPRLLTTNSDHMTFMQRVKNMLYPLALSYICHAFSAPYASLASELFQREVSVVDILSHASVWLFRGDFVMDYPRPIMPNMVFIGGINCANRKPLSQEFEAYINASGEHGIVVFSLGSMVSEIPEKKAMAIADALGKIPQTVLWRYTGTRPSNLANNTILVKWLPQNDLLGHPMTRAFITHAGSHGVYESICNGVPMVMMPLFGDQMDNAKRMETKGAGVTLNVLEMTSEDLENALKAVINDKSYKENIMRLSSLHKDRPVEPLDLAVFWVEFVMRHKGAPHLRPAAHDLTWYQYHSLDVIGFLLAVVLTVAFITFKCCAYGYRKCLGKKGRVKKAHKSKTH
Put plainly: GA glucuronidation kinetics by recombinant UGT1A3. Particulars: recombinant human UGT1A3, pH 7.4. Format: in vitro ADME.

For orientation: Vmax means the top rate of the reaction or transport when substrate is in excess. The term Km denotes the concentration of substrate that gives half-maximal velocity. As to `CC1(C)C=Cc2c(ccc3c2OC[C@@H](c2ccc(O)cc2O)C3)O1` [GA, glabridin], the Vmax in data set [1] (M1 formation) was 0.044 ± 0.005 nmol/min/mg; in data set [1] (M2 formation), 0.25 ± 0.03 nmol/min/mg; in data set [2] (HIM, M2 formation) it was 16.7 ± 7.4 nmol/min/mg; in data set [4] (M1 formation), 0.051 ± 0.005 nmol/min/mg; in data set [4] (M2 formation), 0.51 ± 0.09 nmol/min/mg. Further, the microsomal CLint is 7 µL/min/mg in data set [1] (pH 7.4, Clint, M1 formation, Vmax/Km); 10 µL/min/mg in data set [1] (pH 7.4, Clint, M2 formation, Vmax/Km); 17 µL/min/mg in data set [1] (pH 7.4, Cltotal, M1 + M2); 172 µL/min/mg at UGT1A8 (human, recombinant UGT1A8, pH 7.4); 2010 µL/min/mg in data set [2] (both, human, pH 7.4, Clint, HIM, M2 formation); 2000 µL/min/mg in data set [2] (both, human, pH 7.4, Clint, HIM, M2 formation (text)). The microsomal CLint stood at 2010 µL/min/mg in data set [2] (both, human, pH 7.4, Cltotal, HIM) and 29 µL/min/mg on UGT1A3. Moreover, the Km at 60 min in data set [1] (M1 formation) was 6.3 ± 3.6 µM; in data set [1] (M2 formation), 24.2 ± 5.7 µM; in data set [4] (M1 formation), 10 ± 3 µM; in data set [4] (M2 formation), 35 ± 11 µM. In addition, the GA glucuronidation activity at recombinant human UGT2B7 is given as less than 0.04 nmol/min/mg. Moreover, the “catalytic activity of UGT1A8 relative to other isoforms” value on UGT1A8 (2 µM GA, 0.1 mg/mL recombinant UGTs, 60 min) is given as “more than 5 fold”. Besides, the KSI at UGT1A8 (UGT1A8, M2 formation) is on record as 1.7 ± 0.4 µM. For the same molecule, the “Clint of UGT1A8 relative to other isoforms” value on UGT1A8 (recombinant UGTs) is recorded as “more than 5 fold”. Further, the “Clint of HIM relative to HLM” value in data set [2] (GA glucuronidation, Table 2) was “more than 100 fold”. In addition, in data set [2] (both, human, intestinal microsomes, pH 7.4), the Km at 20 min is 8.3 ± 3.5 µM. For the same molecule, the oral availability entry in data set [3] is recorded as “about 7.5 % of the oral dose”.
